Test results: patent US8129417B2, “Substituted octahydrocyclopenta[C]pyrrol-4-amines as calcium channel blockers” (Abbott Laboratories, priority 2008, dated 2012)
pIC50: −log10 of the molar value.

Target: human Cav2.2 (Homo sapiens, UniProt Q00975)
Test: Assessment of calcium channel activity using FLIPR (Ca2+ influx in IMR32 cells)
Type: cell-based
Details: 60 minute pre-incubation with compound, 2 μM nifedipine, depolarized with 80 mM KCl
Procedure, shortened: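 IMR32 neuroblastoma cells seeded at 1-1.2×10^5 cells/well and grown 48 h at 37 °C before FLIPR Ca2+ influx read. Percent inhibition at each concentration vs no-inhibitor activity; IC50 by non-linear sigmoidal dose-response fit.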

Sequence of human Cav2.2 (Q00975 whole entry): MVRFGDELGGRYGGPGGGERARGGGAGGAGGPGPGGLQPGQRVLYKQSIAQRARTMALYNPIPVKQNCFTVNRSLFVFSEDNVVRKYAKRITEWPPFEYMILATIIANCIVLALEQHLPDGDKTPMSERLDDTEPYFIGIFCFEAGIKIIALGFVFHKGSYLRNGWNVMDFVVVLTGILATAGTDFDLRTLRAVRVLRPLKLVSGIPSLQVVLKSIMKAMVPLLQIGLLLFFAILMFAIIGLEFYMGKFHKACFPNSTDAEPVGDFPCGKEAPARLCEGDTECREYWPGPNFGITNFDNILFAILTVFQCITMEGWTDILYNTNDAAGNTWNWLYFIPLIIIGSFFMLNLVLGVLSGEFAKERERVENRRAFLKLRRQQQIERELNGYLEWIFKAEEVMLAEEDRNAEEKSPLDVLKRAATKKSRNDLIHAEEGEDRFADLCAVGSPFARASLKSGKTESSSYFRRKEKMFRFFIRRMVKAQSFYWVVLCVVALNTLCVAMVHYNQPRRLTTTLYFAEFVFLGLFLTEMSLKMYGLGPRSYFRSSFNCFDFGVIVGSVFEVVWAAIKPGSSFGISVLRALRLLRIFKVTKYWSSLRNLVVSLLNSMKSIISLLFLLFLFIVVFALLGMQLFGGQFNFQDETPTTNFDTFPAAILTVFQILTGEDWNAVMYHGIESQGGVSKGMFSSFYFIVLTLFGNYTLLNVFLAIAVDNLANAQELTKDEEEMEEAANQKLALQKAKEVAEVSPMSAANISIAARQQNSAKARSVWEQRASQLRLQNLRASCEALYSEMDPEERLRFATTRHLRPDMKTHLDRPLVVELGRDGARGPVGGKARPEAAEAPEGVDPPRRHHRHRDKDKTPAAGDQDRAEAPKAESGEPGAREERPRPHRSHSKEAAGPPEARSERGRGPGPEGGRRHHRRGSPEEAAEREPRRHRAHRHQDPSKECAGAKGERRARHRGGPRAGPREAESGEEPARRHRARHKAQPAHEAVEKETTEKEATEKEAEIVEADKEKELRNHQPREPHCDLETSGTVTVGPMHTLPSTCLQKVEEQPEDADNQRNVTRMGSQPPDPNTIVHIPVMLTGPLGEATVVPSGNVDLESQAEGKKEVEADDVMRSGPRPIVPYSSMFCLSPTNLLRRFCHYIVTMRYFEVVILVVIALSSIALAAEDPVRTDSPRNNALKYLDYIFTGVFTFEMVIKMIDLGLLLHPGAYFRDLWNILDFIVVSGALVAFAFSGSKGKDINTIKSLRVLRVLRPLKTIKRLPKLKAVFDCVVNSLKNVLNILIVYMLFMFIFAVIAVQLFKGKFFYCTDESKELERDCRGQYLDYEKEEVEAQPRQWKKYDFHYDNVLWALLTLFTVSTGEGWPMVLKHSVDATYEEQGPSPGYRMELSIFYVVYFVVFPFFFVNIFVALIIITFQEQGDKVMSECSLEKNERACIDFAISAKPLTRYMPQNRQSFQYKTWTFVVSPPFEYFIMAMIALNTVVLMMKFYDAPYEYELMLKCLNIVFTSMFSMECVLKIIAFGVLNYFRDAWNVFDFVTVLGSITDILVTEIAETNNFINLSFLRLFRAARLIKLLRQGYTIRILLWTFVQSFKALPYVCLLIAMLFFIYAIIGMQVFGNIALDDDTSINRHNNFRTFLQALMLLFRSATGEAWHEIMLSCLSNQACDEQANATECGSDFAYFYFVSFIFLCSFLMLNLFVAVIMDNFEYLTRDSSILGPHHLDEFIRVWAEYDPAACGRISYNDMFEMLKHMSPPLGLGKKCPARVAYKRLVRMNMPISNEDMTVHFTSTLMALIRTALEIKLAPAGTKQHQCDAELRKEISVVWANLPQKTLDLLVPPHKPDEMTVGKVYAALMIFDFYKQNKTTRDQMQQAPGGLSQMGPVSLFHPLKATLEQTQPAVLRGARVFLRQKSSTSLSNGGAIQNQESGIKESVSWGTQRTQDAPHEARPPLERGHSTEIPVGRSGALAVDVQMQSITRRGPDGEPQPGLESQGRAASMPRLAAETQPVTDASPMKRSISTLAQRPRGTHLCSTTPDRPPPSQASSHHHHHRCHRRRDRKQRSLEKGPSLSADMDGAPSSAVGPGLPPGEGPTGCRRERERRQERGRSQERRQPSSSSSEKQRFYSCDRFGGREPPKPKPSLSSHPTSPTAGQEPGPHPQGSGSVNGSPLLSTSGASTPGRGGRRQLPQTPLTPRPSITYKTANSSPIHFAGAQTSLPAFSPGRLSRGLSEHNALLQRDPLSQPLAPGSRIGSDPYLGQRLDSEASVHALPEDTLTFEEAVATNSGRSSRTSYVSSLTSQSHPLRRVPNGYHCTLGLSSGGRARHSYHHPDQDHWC
Sequence of human Cav2.2 (P54289 25-946 partner limits assumed): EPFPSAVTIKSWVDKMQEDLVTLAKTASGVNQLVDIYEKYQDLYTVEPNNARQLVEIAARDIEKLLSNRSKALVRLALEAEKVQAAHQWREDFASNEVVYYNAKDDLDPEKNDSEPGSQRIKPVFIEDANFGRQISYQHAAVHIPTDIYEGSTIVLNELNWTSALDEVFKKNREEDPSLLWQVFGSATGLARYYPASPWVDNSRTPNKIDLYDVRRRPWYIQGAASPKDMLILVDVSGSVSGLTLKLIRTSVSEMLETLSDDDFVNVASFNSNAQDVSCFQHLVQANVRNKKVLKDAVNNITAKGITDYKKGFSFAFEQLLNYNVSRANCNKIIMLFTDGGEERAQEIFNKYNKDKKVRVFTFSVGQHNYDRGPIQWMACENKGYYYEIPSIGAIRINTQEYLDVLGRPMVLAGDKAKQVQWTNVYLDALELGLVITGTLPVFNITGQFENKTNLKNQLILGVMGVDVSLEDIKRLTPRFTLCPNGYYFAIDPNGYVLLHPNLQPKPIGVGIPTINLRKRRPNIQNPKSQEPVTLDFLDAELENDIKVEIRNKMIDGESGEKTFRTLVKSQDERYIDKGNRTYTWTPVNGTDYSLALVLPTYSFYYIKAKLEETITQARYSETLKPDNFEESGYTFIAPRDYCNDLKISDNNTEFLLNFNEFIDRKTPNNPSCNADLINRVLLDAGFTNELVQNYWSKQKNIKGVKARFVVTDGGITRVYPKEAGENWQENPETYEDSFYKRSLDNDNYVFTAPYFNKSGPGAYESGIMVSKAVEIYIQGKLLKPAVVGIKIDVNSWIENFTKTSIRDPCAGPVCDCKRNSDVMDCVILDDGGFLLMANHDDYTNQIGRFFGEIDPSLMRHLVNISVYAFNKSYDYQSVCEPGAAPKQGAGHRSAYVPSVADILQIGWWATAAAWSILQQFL
Sequence of human Cav2.2 (P54289 947-1103 partner limits assumed): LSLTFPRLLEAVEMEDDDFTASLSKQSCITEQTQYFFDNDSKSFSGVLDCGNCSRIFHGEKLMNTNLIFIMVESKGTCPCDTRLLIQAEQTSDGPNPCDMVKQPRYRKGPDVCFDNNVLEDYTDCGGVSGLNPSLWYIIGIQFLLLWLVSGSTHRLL
Sequence of human Cav2.2 (P54284 whole entry partner): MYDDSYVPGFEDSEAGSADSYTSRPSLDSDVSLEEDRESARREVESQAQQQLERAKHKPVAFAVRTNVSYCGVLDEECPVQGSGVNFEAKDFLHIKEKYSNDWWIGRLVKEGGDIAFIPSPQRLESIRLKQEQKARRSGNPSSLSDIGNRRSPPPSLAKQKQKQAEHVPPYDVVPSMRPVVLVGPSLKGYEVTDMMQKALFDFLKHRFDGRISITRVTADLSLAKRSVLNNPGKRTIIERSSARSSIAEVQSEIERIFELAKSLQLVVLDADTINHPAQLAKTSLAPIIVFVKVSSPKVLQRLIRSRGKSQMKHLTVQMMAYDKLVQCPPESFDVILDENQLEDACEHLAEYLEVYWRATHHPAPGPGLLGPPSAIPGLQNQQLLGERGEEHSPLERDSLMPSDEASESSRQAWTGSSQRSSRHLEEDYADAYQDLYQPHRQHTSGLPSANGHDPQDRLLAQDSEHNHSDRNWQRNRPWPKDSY

SMILES	pIC50
CC(C)N[C@@H](CC(C)(C)C)C(=O)N[C@H]1CC[C@@H]2CN(c3cccc(C(F)(F)F)n3)C[C@@H]21 [Example 491, N^2-isopropyl-4-methyl-N^1-{(3aR,4S,6aS)-2-[6-(trifluoromethyl)pyridin-2-yl]octahydrocyclopenta[c]pyrrol-4-yl}-L-leucinamide]	6.59
CC(C)N[C@@H](CC(C)(C)C)C(=O)N1C[C@H]2CC[C@H](NC(=O)C(c3ccc(F)cc3)c3ccc(F)cc3)[C@H]2C1 [Example 492, 2,2-bis(4-fluorophenyl)-N-[(3aR,4S,6aS)-2-(N-isopropyl-4-methyl-L-leucyl)octahydrocyclopenta[c]pyrrol-4-yl]acetamide]	5.70
CC(C)C[C@H](NC(C)C)C(=O)N[C@H]1CC[C@@H]2CN(S(=O)(=O)c3cccc(C(F)(F)F)c3)C[C@@H]21 [Example 496, N^2-isopropyl-N^1-((3aR,4S,6aS)-2-{[3-(trifluoromethyl)phenyl]sulfonyl}octahydrocyclopenta[c]pyrrol-4-yl)-L-leucinamide]	6.28
CC(C)C[C@@H](C(=O)N[C@H]1CC[C@@H]2CN(S(=O)(=O)c3cccc(C(F)(F)F)c3)C[C@@H]21)N(C)C [Example 497, N^2,N^2-dimethyl-N^1-((3aR,4S,6aS)-2-{[3-(trifluoromethyl)phenyl]sulfonyl}octahydrocyclopenta[c]pyrrol-4-yl)-L-leucinamide]	6.24
CC(C)(C)C[C@H](NC1CC1)C(=O)N[C@H]1CC[C@@H]2CN(S(=O)(=O)c3ccc(C(F)(F)F)cc3)C[C@@H]21 [Example 499, N^2-cyclopropyl-4-methyl-N^1-((3aR,4S,6aS)-2-{[4-(trifluoromethyl)phenyl]sulfonyl}octahydrocyclopenta[c]pyrrol-4-yl)-L-leucinamide]	5.57
CC(C)(C)C[C@H](NC1CCCC1)C(=O)N[C@H]1CC[C@@H]2CN(S(=O)(=O)c3ccc(C(F)(F)F)cc3)C[C@@H]21 [Example 501, N^2-cyclopentyl-4-methyl-N^1-((3aR,4S,6aS)-2-{[4-(trifluoromethyl)phenyl]sulfonyl}octahydrocyclopenta[c]pyrrol-4-yl)-L-leucinamide]	6.09
CC(C)(C)C[C@H](NC1CCCCC1)C(=O)N[C@H]1CC[C@@H]2CN(S(=O)(=O)c3ccc(C(F)(F)F)cc3)C[C@@H]21 [Example 502, N^2-cyclohexyl-4-methyl-N^1-((3aR,4S,6aS)-2-{[4-(trifluoromethyl)phenyl]sulfonyl}octahydrocyclopenta[c]pyrrol-4-yl)-L-leucinamide]	6.01
CCC(CC)N[C@@H](CC(C)(C)C)C(=O)N[C@H]1CC[C@@H]2CN(S(=O)(=O)c3ccc(C(F)(F)F)cc3)C[C@@H]21 [Example 503, N^2-(1-ethylpropyl)-4-methyl-N^1-((3aR,4S,6aS)-2-{[4-(trifluoromethyl)phenyl]sulfonyl}octahydrocyclopenta[c]pyrrol-4-yl)-L-leucinamide]	6.05
CC(C)(C)C[C@H](NC1CCC1)C(=O)N[C@H]1CC[C@@H]2CN(S(=O)(=O)c3ccc(C(F)(F)F)cc3)C[C@@H]21 [Example 504, N^2-cyclobutyl-4-methyl-N^1-((3aR,4S,6aS)-2-{[4-(trifluoromethyl)phenyl]sulfonyl}octahydrocyclopenta[c]pyrrol-4-yl)-L-leucinamide]	6.04
CCC[C@H](NC1CCCCC1)C(=O)N[C@H]1CC[C@@H]2CN(S(=O)(=O)c3ccc(C(F)(F)F)cc3)C[C@@H]21 [Example 507, N^2-cyclohexyl-N^1-((3aR,4S,6aS)-2-{[4-(trifluoromethyl)phenyl]sulfonyl}octahydrocyclopenta[c]pyrrol-4-yl)-L-norvalinamide]	6.06
CC(C)(C)C[C@H](NC1CCCC1)C(=O)N[C@H]1CC[C@@H]2CN(C(=O)[C@H](CC(C)(C)C)NC3CCCC3)C[C@@H]21 [Example 508, N^2-cyclopentyl-N^1-[(3aR,4S,6aS)-2-(N-cyclopentyl-4-methyl-L-leucyl)octahydrocyclopenta[c]pyrrol-4-yl]-4-methyl-L-leucinamide]	5.07
CC(C)C[C@@H](C(=O)N[C@@H]1CC[C@H]2CN(Cc3ccccc3)C[C@H]21)N(C)CC(C)(C)C [Example 510, N^1-[(3aS,4R,6aR)-2-benzyloctahydrocyclopenta[c]pyrrol-4-yl]-N^2-methyl-N^2-neopentyl-L-leucinamide]	5.77
CC(C)C[C@@H](C(=O)N[C@@H]1CC[C@H]2CN(Cc3ccccc3)C[C@H]21)N(C)CCC(C)(C)C [Example 511, N^1-[(3aS,4R,6aR)-2-benzyloctahydrocyclopenta[c]pyrrol-4-yl]-N^2-(3,3-dimethylbutyl)-N^2-methyl-L-leucinamide]	5.67
CC(C)C[C@@H](C(=O)N[C@@H]1CC[C@H]2CN(S(=O)(=O)c3cccc(C(F)(F)F)c3)C[C@H]21)N(C)C [Example 512, N^2,N^2-dimethyl-N^1-((3aS,4R,6aR)-2-{[3-(trifluoromethyl)phenyl]sulfonyl}octahydrocyclopenta[c]pyrrol-4-yl)-L-leucinamide]	6.33
CC(C)C[C@@H](C(=O)N[C@@H]1CC[C@H]2CN(Cc3ccccc3)C[C@H]21)N(C)Cc1ccc(F)cc1 [Example 513, N^1-[(3aS,4R,6aR)-2-benzyloctahydrocyclopenta[c]pyrrol-4-yl]-N^2-(4-fluorobenzyl)-N^2-methyl-L-leucinamide]	5.67
CC(C)[C@@H](CC(=O)N[C@H]1CC[C@@H]2CN(S(=O)(=O)c3cccc(C(F)(F)F)c3)C[C@@H]21)NS(C)(=O)=O [Example 515, (3R)-4-methyl-3-[(methylsulfonyl)amino]-N-((3aR,4S,6aS)-2-{[3-(trifluoromethyl)phenyl]sulfonyl}octahydrocyclopenta[c]pyrrol-4-yl)pentanamide]	5.50
CC(C)C[C@H](NS(C)(=O)=O)C(=O)N[C@H]1CC[C@@H]2CN(Cc3cccc(C(F)(F)F)c3)C[C@@H]21 [Example 516, N^2-(methylsulfonyl)-N^1-{(3aR,4S,6aS)-2-[3-(trifluoromethyl)benzyl]octahydrocyclopenta[c]pyrrol-4-yl}-L-leucinamide]	5.52
CC(C)C[C@@H](NS(C)(=O)=O)C(=O)N[C@H]1CC[C@@H]2CN(Cc3cccc(C(F)(F)F)c3)C[C@@H]21 [Example 517, N^2-(methylsulfonyl)-N^1-{(3aR,4S,6aS)-2-[3-(trifluoromethyl)benzyl]octahydrocyclopenta[c]pyrrol-4-yl}-D-leucinamide]	5.35
CCN([C@@H](CC(C)C)C(=O)N[C@H]1CC[C@@H]2CN(Cc3cccc(C(F)(F)F)c3)C[C@@H]21)S(C)(=O)=O [Example 518, N^2-ethyl-N^2-(methylsulfonyl)-N^1-{(3aR,4S,6aS)-2-[3-(trifluoromethyl)benzyl]octahydrocyclopenta[c]pyrrol-4-yl}-L-leucinamide]	6.09
CC(C)(C)C[C@H](NS(C)(=O)=O)C(=O)N[C@H]1CC[C@@H]2CN(Cc3ccc(C(F)(F)F)cc3)C[C@@H]21 [Example 519, 4-methyl-N^2-(methylsulfonyl)-N^1-{(3aR,4S,6aS)-2-[4-(trifluoromethyl)benzyl]octahydrocyclopenta[c]pyrrol-4-yl}-L-leucinamide]	5.29
CCC[C@H](NS(C)(=O)=O)C(=O)N[C@H]1CC[C@@H]2CN(Cc3ccc(C(F)(F)F)cc3)C[C@@H]21 [Example 521, N^2-(methylsulfonyl)-N^1-{(3aR,4S,6aS)-2-[4-(trifluoromethyl)benzyl]octahydrocyclopenta[c]pyrrol-4-yl}-L-norvalinamide]	5.02
CC(C)C[C@H](NS(=O)(=O)C(C)C)C(=O)N[C@@H]1CC[C@H]2CN(Cc3cccc(C(F)(F)F)c3)C[C@H]21 [Example 522, N^2-(isopropylsulfonyl)-N^1-{(3aS,4R,6aR)-2-[3-(trifluoromethyl)benzyl]octahydrocyclopenta[c]pyrrol-4-yl}-L-leucinamide]	5.54
CC(C)C[C@H](NS(=O)(=O)C1CCCC1)C(=O)N[C@@H]1CC[C@H]2CN(Cc3cccc(C(F)(F)F)c3)C[C@H]21 [Example 524, N^2-(cyclopentylsulfonyl)-N^1-{(3aS,4R,6aR)-2-[3-(trifluoromethyl)benzyl]octahydrocyclopenta[c]pyrrol-4-yl}-L-leucinamide]	5.68
CC(C)OC(=O)N[C@@H](CC(C)(C)C)C(=O)N[C@H]1CC[C@@H]2CN(Cc3ccc(C(F)(F)F)cc3)C[C@@H]21 [Example 525, Isopropyl (S)-4,4-dimethyl-1-oxo-1-((3aR,4S,6aS)-2-(4-(trifluoromethyl)benzyl)octahydrocyclopenta[c]pyrrol-4-ylamino)pentan-2-ylcarbamate]	5.86
CC(C)OC(=O)N[C@H](C(=O)N[C@H]1CC[C@@H]2CN(Cc3ccc(C(F)(F)F)cc3)C[C@@H]21)C(C)(C)C [Example 526, Isopropyl (S)-3,3-dimethyl-1-oxo-1-((3aR,4S,6aS)-2-(4-(trifluoromethyl)benzyl)octahydrocyclopenta[c]pyrrol-4-ylamino)butan-2-ylcarbamate]	5.56
CCC[C@H](NC(=O)OC1CCCC1)C(=O)N[C@H]1CC[C@@H]2CN(Cc3ccc(C(F)(F)F)cc3)C[C@@H]21 [Example 527, Cyclopentyl (S)-1-oxo-1-((3aR,4S,6aS)-2-(4-(trifluoromethyl)benzyl)octahydrocyclopenta[c]pyrrol-4-ylamino)pentan-2-ylcarbamate]	5.64
CCC[C@H](NC(=O)C(C)(C)C)C(=O)N[C@H]1CC[C@@H]2CN(Cc3ccc(C(F)(F)F)cc3)C[C@@H]21 [Example 528, N^2-(2,2-dimethylpropanoyl)-N^1-{(3aR,4S,6aS)-2-[4-(trifluoromethyl)benzyl]octahydrocyclopenta[c]pyrrol-4-yl}-L-norvalinamide]	5.14
CCC[C@@H](C(=O)N[C@H]1CC[C@@H]2CN(S(=O)(=O)c3ccc(F)c(Cl)c3)C[C@@H]21)N(C)C(=O)OC(C)(C)C [Example 529, Tert-butyl (S)-1-((3aR,4S,6aS)-2-(3-chloro-4-fluorophenylsulfonyl)octahydrocyclopenta[c]pyrrol-4-ylamino)-1-oxopentan-2-yl(methyl)carbamate]	6.02
